Test results reported in patent publication US6796312B2, “Process and apparatus for the removal of toxic components of tobacco smoke and the standardization of the health hazards related to those components” (priority 2001, dated 2004).
Several values for one entry are separate records, joined by “and”; a condition that tells them apart may be missing. Equal entries are not always repeated. Where two headings read alike, the source gives them in different places.

How the values were obtained:
[1] = cited from earlier work
[2] = test system: succinic oxidase and reduced nicotinamide-adenine dinucleotide oxidase; experiment: Respiratory chain of mouse heart homogenates; assay type: biochemical; conditions: under certain conditions, Eichel unpublished
[3] = molecular target: jack bean urease (Canavalia ensiformis, UniProt P07374); conditions: cited from earlier work
Sequence of jack bean urease (P07374 whole entry, looked up): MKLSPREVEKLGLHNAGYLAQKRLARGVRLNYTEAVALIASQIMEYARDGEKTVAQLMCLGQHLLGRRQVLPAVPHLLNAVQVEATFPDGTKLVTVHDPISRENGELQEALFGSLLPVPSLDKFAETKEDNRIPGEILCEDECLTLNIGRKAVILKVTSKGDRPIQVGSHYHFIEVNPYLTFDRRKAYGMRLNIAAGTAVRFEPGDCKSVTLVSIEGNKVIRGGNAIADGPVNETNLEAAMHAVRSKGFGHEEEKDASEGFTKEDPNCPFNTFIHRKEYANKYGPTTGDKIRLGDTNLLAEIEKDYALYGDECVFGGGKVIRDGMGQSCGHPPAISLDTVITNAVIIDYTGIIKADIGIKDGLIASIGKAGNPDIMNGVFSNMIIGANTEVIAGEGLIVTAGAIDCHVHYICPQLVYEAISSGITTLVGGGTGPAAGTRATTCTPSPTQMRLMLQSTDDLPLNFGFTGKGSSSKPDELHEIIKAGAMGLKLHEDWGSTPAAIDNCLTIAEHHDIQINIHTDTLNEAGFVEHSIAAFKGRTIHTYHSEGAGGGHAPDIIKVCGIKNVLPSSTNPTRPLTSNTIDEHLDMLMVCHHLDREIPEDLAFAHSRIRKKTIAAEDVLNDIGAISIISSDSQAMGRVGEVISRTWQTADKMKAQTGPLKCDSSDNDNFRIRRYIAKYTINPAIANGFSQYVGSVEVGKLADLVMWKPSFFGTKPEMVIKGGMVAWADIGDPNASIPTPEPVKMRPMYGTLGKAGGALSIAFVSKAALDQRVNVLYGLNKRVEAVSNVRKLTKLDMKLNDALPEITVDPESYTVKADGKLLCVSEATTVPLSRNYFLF

[4] = test system: rat liver cyclophorase; conditions: 2.7×10^−3 Molar (160 ppm); listed as nordihydroguaiaretic acid; cited from earlier work
[5] = test system: turnip peroxidase; conditions: 2.7×10^−4 Molar (80 ppm); cited from earlier work
[6] = molecular target: T1, pig heart D-amino acid oxidase (Sus scrofa, UniProt P00371); conditions: 2.7×10^−3 Molar (160 ppm); cited from earlier work
T1 construct: host or cells: pig heart (so in the source)
T1 sequence (P00371 whole entry): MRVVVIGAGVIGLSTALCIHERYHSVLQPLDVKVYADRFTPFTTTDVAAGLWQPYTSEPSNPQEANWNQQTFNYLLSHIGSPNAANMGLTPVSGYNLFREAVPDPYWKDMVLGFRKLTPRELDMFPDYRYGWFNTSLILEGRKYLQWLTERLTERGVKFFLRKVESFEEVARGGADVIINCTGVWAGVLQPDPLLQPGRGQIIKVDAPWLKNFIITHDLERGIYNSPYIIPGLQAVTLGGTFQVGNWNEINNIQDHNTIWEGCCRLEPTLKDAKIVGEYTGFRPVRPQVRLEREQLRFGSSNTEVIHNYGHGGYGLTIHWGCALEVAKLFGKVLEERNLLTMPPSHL

[7] = test system: human whole saliva; conditions: low concentrations; cited from earlier work
[8] = Non-enzymatic oxidation of NADH2 by aged NDGA solutions
Description: Oxidation of reduced nicotinamide-adenine dinucleotide by nordihydroguaiaretic acid in the presence of PO4 buffer at pH 7.0 occurs at a slow rate, (See Burk and Woods (1963) and references to findings of […]. and […]. reported therein). Although this oxidation was very small under the conditions of experiment, an interaction correction factor was determined and applied to all reduced nicotinamide-adenine dinucleotide-nordihydroguaiaretic acid-mycloperoxidase assay reactions. [table] The effect of aging nordihydroguaiaretic acid solutions (0.5 mg. nordihydroguaiaretic acid dissolved in 0.02 ml. of ethyl alcohol plus 0.98 ml. of 0.15 Molar Na2HPO4.KH2PO4 buffer, pH 7.0) on the oxidation of reduced nicotinamide-adenine dinucleotide by nordihydroguaiaretic acid is shown above in Table VI. At 35° C., the latter undergoes a slow visible auto-oxidation change, from a near colorless solution (the reduced form of the orthoquinone) immediately after preparation, to a yellow brown colloidal suspension (probably the quinone form) with the yellow-brown material tending to precipitate slowly during the course of several hours. The sedimentation of nordihydroguaiaretic acid and its accumulation and adherence upon the inner glass surface of test tubes was avoided by shaking the solution periodically. The slow oxidation of reduced nicotinamide-adenine dinucleotide by nordihydroguaiaretic acid during the first forty-five (45) minutes can be more than twice the rate of subsequent time periods. Once the lowest rate of oxidation of reduced nicotinamide-adenine dinucleotide is achieved by the aging of nordihydroguaiaretic acid solutions, it remains constant for at least eight (8) hours.

[9] = test system: plant lipoxidase; conditions: cited from earlier work
[10] = test system: Ehrlich carcinoma, Li210 mouse leukemia and other cancer cells; conditions: in vivo and in vitro; cited from earlier work

SMILES: CC(Cc1ccc(O)c(O)c1)C(C)Cc1ccc(O)c(O)c1 (stereo not drawn) [NDGA, beta, gamma-dimethyl-alpha, ortho-bis (3,4 dihydroxiphenyl) butane]
- solubility ([1]; dilute hydrochloric acid): insoluble
- solubility ([1]; ethanol, methanol, ether, acetone, glycerol, propylene glycol, dilute alkali): soluble
- solubility ([1]; hot water and chloroform): slightly soluble
- inhibition of the respiratory chain (succinic oxidase, reduced nicotinamide-adenine dinucleotide oxidase) [2]: effective inhibitor
- inhibition of jack bean urease [3]: 99%
- inhibition of rat liver cyclophorase [4]: 93% and 70%
- inhibition of turnip peroxidase [5]: 71%
- inhibition of pig heart D-amino acid oxidase [6]: 99%
- inhibition of aerobic and anaerobic glycolysis [7]: markedly inhibited
- inhibition of endogenous and glucose dependent respiration [7]: nearly as effectively inhibited
- Rate of Oxidation of NADH2 ([8]; NDGA solution aged 10 minutes at 35° C., pH 7.0, Experiment 3): .017 Optical Density (O.D.) Units per 100 Seconds
- Rate of Oxidation of NADH2 ([8]; NDGA solution aged 15 minutes, Experiment 2): .020 Optical Density (O.D.) Units per 100 Seconds
- Rate of Oxidation of NADH2 ([8]; NDGA solution aged 45 minutes, Experiment 1): .027 Optical Density (O.D.) Units per 100 Seconds
- Rate of Oxidation of NADH2 ([8]; NDGA solution aged 60 minutes, Experiment 3): .013 Optical Density (O.D.) Units per 100 Seconds
- Rate of Oxidation of NADH2 ([8]; NDGA solution aged 110 minutes, Experiment 1): .011 Optical Density (O.D.) Units per 100 Seconds
- Rate of Oxidation of NADH2 ([8]; NDGA solution aged 120 minutes, Experiment 3): .011 Optical Density (O.D.) Units per 100 Seconds
- Rate of Oxidation of NADH2 ([8]; NDGA solution aged 140 minutes, Experiment 2): .014 Optical Density (O.D.) Units per 100 Seconds
- Rate of Oxidation of NADH2 ([8]; NDGA solution aged 175 minutes, Experiment 1): .012 Optical Density (O.D.) Units per 100 Seconds
- Rate of Oxidation of NADH2 ([8]; NDGA solution aged 180 minutes, Experiment 3): .012 Optical Density (O.D.) Units per 100 Seconds
- Rate of Oxidation of NADH2 ([8]; NDGA solution aged 215 minutes, Experiment 2): .014 Optical Density (O.D.) Units per 100 Seconds
- Rate of Oxidation of NADH2 ([8]; NDGA solution aged 240 minutes, Experiment 3): .012 Optical Density (O.D.) Units per 100 Seconds
- Rate of Oxidation of NADH2 ([8]; NDGA solution aged 270 minutes, Experiment 1): .011 Optical Density (O.D.) Units per 100 Seconds
- Rate of Oxidation of NADH2 ([8]; NDGA solution aged 285 minutes, Experiment 2): .014 Optical Density (O.D.) Units per 100 Seconds
- Rate of Oxidation of NADH2 ([8]; NDGA solution aged 323 minutes, Experiment 1): .011 Optical Density (O.D.) Units per 100 Seconds
- Rate of Oxidation of NADH2 ([8]; NDGA solution aged 380 minutes, Experiment 3): .011 Optical Density (O.D.) Units per 100 Seconds
- Rate of Oxidation of NADH2 ([8]; NDGA solution aged 440 minutes, Experiment 3): .011 Optical Density (O.D.) Units per 100 Seconds
- Rate of Oxidation of NADH2 ([8]; NDGA solution aged 485 minutes, Experiment 3): .010 Optical Density (O.D.) Units per 100 Seconds
- inhibition of plant lipoxidase-catalyzed oxidation and auto-oxidation of linoleate [9]: well-known inhibitor
- inhibition of the same metabolic activities in cancer cells [10]: similarly inhibited
